Format in all cases: physicochemical
The nature of series [1]: Fluorescence emission in ethylene glycol-glycerol mixed solutions of different viscosities. Particulars: 1×10^−5 M, 16.4-946.0 cp; for Emission wavelength: excited at 480 nm; for Viscosity response of fluorescence intensity: log intensity vs log viscosity linear. The protocol: Molecular Rotors 1, 2, 3, 22, 57, and 63 were added to ethylene glycol-glycerol mixed solutions having viscosities of 16.4 cp, 29.8 cp, 64.5 cp, 143.5 cp, 377.0 cp, and 946.0 cp to prepare a solution with a final concentration of 1×10^−5 M. The solution was excited at 480 nm. The fluorescence emission spectra at different viscosities were shown in FIGS. 1, 4, 7, 10, 13, and 16. Emission wavelengths of the molecular rotors were 555 nm, 590 nm, 610 nm, 570 nm, 559 nm, and 675 nm, respectively.

Series [2] is described as follows: Fluorescence emission spectra of molecular rotors in glycerin and methanol. Particulars: for Maximum Emission Wavelength: 1×10^−5 M in glycerin and methanol, excited at maximum excitation wavelength of each dye; for Fluorescence Intensity Ratios in Glycerol/Methanol: 1×10^−5 M, glycerol vs methanol solution. The protocol:
The fluorescent dyes (molecular rotors) prepared in Examples 1-68 were separately dissolved in dimethyl sulfoxide to prepare respectively a mother liquor having a concentration of 1×10^−2 M, and each of the mother liquors was added individually to glycerin and methanol, and mixed uniformly, thereby solutions of a final concentration of 1×10^−5 M were prepared individually. According to the different fluorescent dyes, the fluorescence emission spectra of the fluorescent dyes were detected with the maximum excitation wavelengths of respective fluorescent dyes successively under the same conditions.

A short description of series [3]: Fluorescence emission intensity in dichloromethane and methanol (polarity response). Particulars: 1×10^−5 M; dichloromethane vs methanol; 25° C. The protocol: Molecular Rotors 1, 2, 3, 22, 57, 63 were added to dichloromethane and methanol respectively to prepare a solution with a final concentration of 1×10^−5 M. Then, the solution was excited individually by excitation wavelengths of 480 nm, 480 nm and 500 nm at 25° C. to detect their fluorescence emission intensities in two different polar solvents.

In the case of `CN(CCO)c1cc2c(s1)-c1sc(/C=C(\C#N)C(=O)OC(C)(C)C)cc1[Si]2(C)C` [Molecular Rotor 57], in series [1], the Emission wavelength was determined as 559 nm and the “Viscosity response of fluorescence intensity” value (“Viscosity response” below) was “sensitive to viscosity”. Further, in series [2], the “Maximum Emission Wavelength” value is reported as 659 nm and the “Fluorescence Intensity Ratios in Glycerol/Methanol” value is 884. In addition, in series [3], the “Polarity response of fluorescence intensity” value (from here on “Polarity response”) is reported as “insensitive to the polarity change”.
The like results for “2-[2-cyano-2-(2-benzoxazole)-vinyl]-5-didecylamino-thieno[3,2,b]thiophene [Molecular Rotor 2]” were, in that order, 590 nm, “sensitive to viscosity”, 590 nm, 1183 and “insensitive to the polarity change”.
The like results for `CN(C)c1cc2c(s1)c1sc(/C=C(\C#N)C(=O)OC(C)(C)C)cc1n2C` [Molecular Rotor 63] were, in that order, 675 nm, “sensitive to viscosity”, 675 nm, 516 and “insensitive to the polarity change”.
The like results for `CN(C)c1ccc2cc(/C=C(\C#N)C(=O)OC(C)(C)C)sc2c1` [Molecular Rotor 22] were, in that order, 570 nm, “sensitive to viscosity”, 570 nm, 989 and “insensitive to the polarity change”.
Take `CN(CCO)c1cc2sc(/C=C(\C#N)c3nc4ccccc4s3)cc2s1` [Molecular Rotor 3, 2-[2-cyano-2-(1,3-benzothiazol-2-yl)-vinyl]-5-(N-methyl-N-hydroxyethyl)-thieno[3,2,b]thiophene]: in series [1], the Emission wavelength turned out to be 610 nm and the “Viscosity response” value is recorded as “sensitive to viscosity”. In series [2], the “Maximum Emission Wavelength” value is reported as 610 nm and the “Fluorescence Intensity Ratios in Glycerol/Methanol” value is given as 1455. Also, in series [3], the “Polarity response” value was “insensitive to the polarity change”.
For `CN(CCO)c1cc2c(s1)-c1sc(/C=C(\C#N)c3nc4ccccc4s3)cc1C2(C)C` [Molecular Rotor 67], in series [2], the “Maximum Emission Wavelength” value was 690 nm and the “Fluorescence Intensity Ratios in Glycerol/Methanol” value amounted to 789.
The like results for `CNc1cc2sc(/C=C(\C#N)C(=O)O)cc2s1` [Molecular Rotor 5, 6-(2-cyano-2-formic acid)-2-methylamino-thieno[3,2,b]thiophene] were, in that order, 555 nm and 1980.
For `CN(C)c1cc2sc3cc(/C=C(\C#N)C(=O)OC(C)(C)C)sc3c2s1` [Molecular Rotor 11, 6-(2-cyano-2-tert-butyl formatevinyl)-2-dimethylamino-thieno[3,2-B:2′,3′-D]thiophene], in series [2], the “Maximum Emission Wavelength” value was 620 nm and the “Fluorescence Intensity Ratios in Glycerol/Methanol” value was 568.
The like results for `COCCNC(=O)/C(C#N)=C/c1cc2sc(N(C)CCC#N)cc2s1` [Molecular Rotor 7] were, in that order, 555 nm and 1877.
For `CN(CC(=O)O)c1cc2sc3cc(/C=C(\C#N)c4nc5ccccc5s4)sc3c2s1` [Molecular Rotor 13, 6-[2-cyano-2-(1,3-benzothiazol-2-yl)-vinyl]-2-N-m ethylamino-N-acetic acid-dithiophene[3,2-B:2′3′-D]thiophene], in that order: 690 nm and 352.
For `COCCNC(=O)/C(C#N)=C/c1cc2cc3cc(N4CCOCC4)sc3cc2s1` [Molecular Rotor 55], in that order: 562 nm and 466.
Consider `CN(CCO)c1cc2cc3sc(/C=C(\C#N)c4nc5ccccc5o4)cc3cc2s1` [Molecular Rotor 43], for which, in series [2], the “Maximum Emission Wavelength” value is 582 nm and the “Fluorescence Intensity Ratios in Glycerol/Methanol” value worked out at 816.
As for `CN(C)c1cc2sc(/C=C(\C#N)C(=O)OC(C)(C)C)cc2s1` [Molecular Rotor 1, 2-(2-cyano-2-tert-butyl formatevinyl)-5-dimethylamino-thieno[3,2,b]thiophene], in series [1], the Emission wavelength turned out to be 555 nm and the “Viscosity response” value is “sensitive to viscosity”. Besides, in series [2], the “Maximum Emission Wavelength” value worked out at 555 nm and the “Fluorescence Intensity Ratios in Glycerol/Methanol” value was found to be 790. Besides, the “Polarity response” value in series [3] was “insensitive to the polarity change”.
Take `CN1C(=O)/C(=C/c2cc3sc4cc(N(CCCl)CCCl)sc4c3s2)N=C1/C=C/c1ccccc1` [Molecular Rotor 20]: in series [2], the “Maximum Emission Wavelength” value was found to be 690 nm and the “Fluorescence Intensity Ratios in Glycerol/Methanol” value is on record as 536.
For `CCCCCCCCCCN(CCCCCCCCCC)c1cc2cc3sc(/C=C(\C#N)C(=O)OC(C)(C)C)cc3cc2s1` [Molecular Rotor 42], in that order: 558 nm and 924.
Regarding `CC1=N/C(=C/c2cc3cc4cc(N(CCO)CCO)sc4cc3s2)C(=O)N1C` [Molecular Rotor 50], in series [2], the “Maximum Emission Wavelength” value was 587 nm and the “Fluorescence Intensity Ratios in Glycerol/Methanol” value is listed as 777.
For `CN(CCC#N)c1cc2cc3sc(/C=C(\C#N)C(=O)O)cc3cc2s1` [Molecular Rotor 47], in that order: 561 nm and 912.
The like results for `COCCOCCOCCOCCOCCN(C)c1ccc2c(c1)sc1cc(/C=C(\C#N)c3nc4ccccc4o3)sc12` [Molecular Rotor 38] were, in that order, 650 nm and 623.
`COCCNC(=O)/C(C#N)=C/c1cc2cc3cc(N4CCOCC4)sc3cc2s1` [Molecular Rotor 54]: in series [2], the “Maximum Emission Wavelength” value is given as 563 nm and the “Fluorescence Intensity Ratios in Glycerol/Methanol” value came out at 722.
The like results for `CCCCN(CC(O)CO)c1ccc2cc(/C=C3/N=C(C)N(C)C3=O)sc2c1` (stereo not shown) [Molecular Rotor 27] were, in that order, 600 nm and 601.

The values above are taken from patent publication US11365203B2, “Fluorescent dye and preparation method and use thereof” (Fluorescence Diagnosis (shanghai) Biotech Company Ltd., priority 2016, dated 2022).
